Measured values published in PMC8078842 (PLoS Neglected Tropical Diseases, 2021).

Test: In situ brain/choroid plexus perfusion (10 or 30 minutes) with capillary depletion
Details: 30 min perfusion, not corrected for vascular space

[^3H(G)]pentamidine
RTISSUE/PLASMA% (mean ± SEM) of [^3H]pentamidine (Cerebellum, 0.1% F68 + 15.7 nM pent): 14.44 (± 2.47) %
RTISSUE/PLASMA% (mean ± SEM) of [^3H]pentamidine (Cerebellum, 0.5% F68 + 15.7 nM pent): 17.28 (± 3.54) %
RTISSUE/PLASMA% (mean ± SEM) of [^3H]pentamidine (Cerebellum, Control (15.7 nM pent)): 12.92 (± 1.10) %
RTISSUE/PLASMA% (mean ± SEM) of [^3H]pentamidine (Choroid plexus, 0.01% F68 + 15.7 nM pent): 835.26 (± 260.20) %
RTISSUE/PLASMA% (mean ± SEM) of [^3H]pentamidine (Choroid plexus, 0.1% F68 + 15.7 nM pent): 944.85 (± 235.90) %
RTISSUE/PLASMA% (mean ± SEM) of [^3H]pentamidine (Choroid plexus, 0.5% F68 + 15.7 nM pent): 1844.80 (± 493.51) %
RTISSUE/PLASMA% (mean ± SEM) of [^3H]pentamidine (Choroid plexus, Control (15.7 nM pent)): 1241.60 (± 92.86) %
RTISSUE/PLASMA% (mean ± SEM) of [^3H]pentamidine (Corpus callosum, 0.01% F68 + 15.7 nM pent): 2.02 (± 1.22) %
RTISSUE/PLASMA% (mean ± SEM) of [^3H]pentamidine (Corpus callosum, 0.1% F68 + 15.7 nM pent): 9.47 (± 0.94) %
RTISSUE/PLASMA% (mean ± SEM) of [^3H]pentamidine (Corpus callosum, 0.5% F68 + 15.7 nM pent): 15.72 (± 6.78) %
RTISSUE/PLASMA% (mean ± SEM) of [^3H]pentamidine (Corpus callosum, Control (15.7 nM pent)): 8.19 (± 1.97) %
RTISSUE/PLASMA% (mean ± SEM) of [^3H]pentamidine (Frontal cortex, 0.01% F68 + 15.7 nM pent): 9.00 (± 1.47) %
RTISSUE/PLASMA% (mean ± SEM) of [^3H]pentamidine (Frontal cortex, 0.1% F68 + 15.7 nM pent): 11.91 (± 1.35) %
RTISSUE/PLASMA% (mean ± SEM) of [^3H]pentamidine (Frontal cortex, 0.5% F68 + 15.7 nM pent): 17.54 (± 3.58) %
RTISSUE/PLASMA% (mean ± SEM) of [^3H]pentamidine (Frontal cortex, Control (15.7 nM pent)): 10.35 (± 0.84) %
RTISSUE/PLASMA% (mean ± SEM) of [^3H]pentamidine (Hippocampus, 0.01% F68 + 15.7 nM pent): 6.05 (± 1.20) %
RTISSUE/PLASMA% (mean ± SEM) of [^3H]pentamidine (Hippocampus, 0.1% F68 + 15.7 nM pent): 7.93 (± 1.20) %
RTISSUE/PLASMA% (mean ± SEM) of [^3H]pentamidine (Hippocampus, 0.5% F68 + 15.7 nM pent): 10.65 (± 2.55) %
RTISSUE/PLASMA% (mean ± SEM) of [^3H]pentamidine (Hippocampus, Control (15.7 nM pent)): 8.19 (± 0.30) %
RTISSUE/PLASMA% (mean ± SEM) of [^3H]pentamidine (Homogenate (capillary depletion), 0.01% F68 + 15.7 nM pent): 9.63 (± 0.93) %
RTISSUE/PLASMA% (mean ± SEM) of [^3H]pentamidine (Homogenate (capillary depletion), 0.1% F68 + 15.7 nM pent): 11.19 (± 1.62) %
RTISSUE/PLASMA% (mean ± SEM) of [^3H]pentamidine (Homogenate (capillary depletion), 0.5% F68 + 15.7 nM pent): 14.45 (± 3.93) %
RTISSUE/PLASMA% (mean ± SEM) of [^3H]pentamidine (Homogenate (capillary depletion), Control (15.7 nM pent)): 10.18 (± 0.92) %
RTISSUE/PLASMA% (mean ± SEM) of [^3H]pentamidine (Hypothalamus, 0.01% F68 + 15.7 nM pent): 8.90 (± 1.42) %
RTISSUE/PLASMA% (mean ± SEM) of [^3H]pentamidine (Hypothalamus, 0.1% F68 + 15.7 nM pent): 11.17 (± 1.42) %
RTISSUE/PLASMA% (mean ± SEM) of [^3H]pentamidine (Hypothalamus, 0.5% F68 + 15.7 nM pent): 18.73 (± 4.67) %
RTISSUE/PLASMA% (mean ± SEM) of [^3H]pentamidine (Hypothalamus, Control (15.7 nM pent)): 18.49 (± 4.17) %
RTISSUE/PLASMA% (mean ± SEM) of [^3H]pentamidine (Occipital cortex, 0.01% F68 + 15.7 nM pent): 8.80 (± 1.47) %
RTISSUE/PLASMA% (mean ± SEM) of [^3H]pentamidine (Occipital cortex, 0.1% F68 + 15.7 nM pent): 12.14 (± 1.62) %
RTISSUE/PLASMA% (mean ± SEM) of [^3H]pentamidine (Occipital cortex, 0.5% F68 + 15.7 nM pent): 15.85 (± 2.71) %
RTISSUE/PLASMA% (mean ± SEM) of [^3H]pentamidine (Occipital cortex, Control (15.7 nM pent)): 9.52 (± 1.08) %
RTISSUE/PLASMA% (mean ± SEM) of [^3H]pentamidine (Pellet (capillary depletion), 0.01% F68 + 15.7 nM pent): 18.16 (± 2.79) %
RTISSUE/PLASMA% (mean ± SEM) of [^3H]pentamidine (Pellet (capillary depletion), 0.1% F68 + 15.7 nM pent): 22.15 (± 4.44) %
RTISSUE/PLASMA% (mean ± SEM) of [^3H]pentamidine (Pellet (capillary depletion), Control (15.7 nM pent)): 16.45 (± 2.76) %
RTISSUE/PLASMA% (mean ± SEM) of [^3H]pentamidine (Pineal gland, 0.01% F68 + 15.7 nM pent): 341.30 (± 39.57) %
RTISSUE/PLASMA% (mean ± SEM) of [^3H]pentamidine (Pineal gland, 0.1% F68 + 15.7 nM pent): 342.95 (± 92.02) %
RTISSUE/PLASMA% (mean ± SEM) of [^3H]pentamidine (Pineal gland, 0.5% F68 + 15.7 nM pent): 525.94 (± 122.85) %
RTISSUE/PLASMA% (mean ± SEM) of [^3H]pentamidine (Pineal gland, Control (15.7 nM pent)): 664.25 (± 82.42) %
RTISSUE/PLASMA% (mean ± SEM) of [^3H]pentamidine (Pituitary gland, 0.01% F68 + 15.7 nM pent): 324.42 (± 44.06) %
RTISSUE/PLASMA% (mean ± SEM) of [^3H]pentamidine (Pituitary gland, 0.1% F68 + 15.7 nM pent): 434.10 (± 59.56) %
RTISSUE/PLASMA% (mean ± SEM) of [^3H]pentamidine (Pituitary gland, 0.5% F68 + 15.7 nM pent): 881.90 (± 170.25) %
RTISSUE/PLASMA% (mean ± SEM) of [^3H]pentamidine (Pituitary gland, Control (15.7 nM pent)): 394.51 (± 52.42) %
RTISSUE/PLASMA% (mean ± SEM) of [^3H]pentamidine (Pons, 0.01% F68 + 15.7 nM pent): 17.61 (± 3.70) %
RTISSUE/PLASMA% (mean ± SEM) of [^3H]pentamidine (Pons, 0.1% F68 + 15.7 nM pent): 20.36 (± 3.70) %
RTISSUE/PLASMA% (mean ± SEM) of [^3H]pentamidine (Pons, 0.5% F68 + 15.7 nM pent): 20.43 (± 5.67) %
RTISSUE/PLASMA% (mean ± SEM) of [^3H]pentamidine (Pons, Control (15.7 nM pent)): 15.16 (± 1.48) %
RTISSUE/PLASMA% (mean ± SEM) of [^3H]pentamidine (Supernatant (capillary depletion), 0.01% F68 + 15.7 nM pent): 3.77 (± 0.94) %
RTISSUE/PLASMA% (mean ± SEM) of [^3H]pentamidine (Supernatant (capillary depletion), 0.1% F68 + 15.7 nM pent): 6.63 (± 0.52) %
RTISSUE/PLASMA% (mean ± SEM) of [^3H]pentamidine (Supernatant (capillary depletion), 0.5% F68 + 15.7 nM pent): 6.45 (± 1.35) %
RTISSUE/PLASMA% (mean ± SEM) of [^3H]pentamidine (Supernatant (capillary depletion), Control (15.7 nM pent)): 5.54 (± 0.37) %
RTISSUE/PLASMA% (mean ± SEM) of [^3H]pentamidine (Thalamus, 0.01% F68 + 15.7 nM pent): 7.99 (± 1.06) %
RTISSUE/PLASMA% (mean ± SEM) of [^3H]pentamidine (Thalamus, 0.1% F68 + 15.7 nM pent): 11.08 (± 1.06) %
RTISSUE/PLASMA% (mean ± SEM) of [^3H]pentamidine (Thalamus, 0.5% F68 + 15.7 nM pent): 13.52 (± 3.10) %
RTISSUE/PLASMA% (mean ± SEM) of [^3H]pentamidine (Thalamus, Control (15.7 nM pent)): 9.94 (± 1.95) %
